Measurements reported in PMC6189639 (Biochemistry, 2018).

Legend:
Experiment in all cases: X-ray crystal structure of complex, […] A
Assay type in all cases: binding
tmMBP3 = tmMBP3 (Thermotoga maritima, UniProt G4FGN8); conditions: co-crystal, 0.4 M sodium thiocyanate; substrate site S1-S2
tmMBP1 = tmMBP1 (Thermotoga maritima, UniProt Q9X0T1); conditions: co-crystal, 0.1 M sodium citrate; substrate site S1-S4
tmMBP2 = tmMBP2 (Thermotoga maritima, UniProt Q9S5Y1); conditions: co-crystal, bis-tris pH 5.5; substrate site S1-S4

Row | X-ray crystal structure of complex, 2.15 A; SAXS (tmMBP3) | X-ray crystal structure of complex, 1.50 A; SAXS (tmMBP1) | X-ray crystal structure of complex, 1.50 A; SAXS (tmMBP2) | SMILES
1 | tmMBP3-maltose complex (6DTQ) |  |  | OC[C@H]1O[C@H](O[C@H]2[C@H](O)[C@@H](O)C(O)O[C@@H]2CO)[C@H](O)[C@@H](O)[C@@H]1O (stereo partly drawn) [maltose]
2 |  | tmMBP1-maltotetraose complex (6DTU) | tmMBP2-maltotetraose complex (6DTS) | OC[C@H]1O[C@H](O[C@H]2[C@H](O)[C@@H](O)[C@@H](O[C@H]3[C@H](O)[C@@H](O)[C@@H](O[C@H]4[C@H](O)[C@@H](O)C(O)O[C@@H]4CO)O[C@@H]3CO)O[C@@H]2CO)[C@H](O)[C@@H](O)[C@@H]1O (stereo partly drawn) [maltotetraose]
